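GI50 = concentration required for 50% inhibition of growth. TGI marks complete inhibition of growth.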
How the values were obtained:
Assay in all cases: inhibition of tumour cell growth, NCI panel, 384-well format
[1] = tested on: 786-0 renal
[2] = tested on: A498 renal
[3] = tested on: A549 NSCLC
[4] = tested on: ACHN renal
[5] = tested on: BT-549 breast
[6] = tested on: CAKI-1 renal
[7] = tested on: CCRF-CEM leukemia
[8] = tested on: COLO 205 colon
[9] = tested on: DU-145 prostate
[10] = tested on: EKVX NSCLC
[11] = tested on: HCC-2998 colon
[12] = tested on: HCT-116 colon
[13] = tested on: HCT-15 colon
[14] = tested on: HL-60(TB) leukemia
[15] = tested on: HOP-62 NSCLC
[16] = tested on: HOP-92 NSCLC
[17] = tested on: HS 578T breast
[18] = tested on: HT29 colon
[19] = tested on: IGROV1 ovarian
[20] = tested on: K-562 leukemia
[21] = tested on: KM12 colon
[22] = tested on: LOX IMVI melanoma
[23] = tested on: M14 melanoma
[24] = tested on: MALME-3M melanoma
[25] = tested on: MCF7 breast
[26] = tested on: MDA-MB-231 breast
[27] = tested on: MDA-MB-435 melanoma
[28] = tested on: NCI-H226 lung
[29] = tested on: NCI-H23 lung
[30] = tested on: NCI-H322M lung
[31] = tested on: NCI-H460 NSCLC
[32] = tested on: NCI-H522 lung
[33] = tested on: NCI/ADR-RES ovarian
[34] = tested on: OVCAR-3 ovarian
[35] = tested on: OVCAR-4 ovarian
[36] = tested on: OVCAR-8 ovarian
[37] = tested on: PC-3 prostate
[38] = tested on: RPMI-8226 leukemia
[39] = tested on: RXF 393 renal
[40] = tested on: SF-268 CNS
[41] = tested on: SF-295 CNS
[42] = tested on: SF-539 CNS
[43] = tested on: SK-MEL-28 melanoma
[44] = tested on: SK-MEL-5 melanoma
[45] = tested on: SK-OV-3 ovarian
[46] = tested on: SNB-75 CNS
[47] = tested on: SR leukemia
[48] = tested on: SW-620 colon
[49] = tested on: T-47D breast
[50] = tested on: TK-10 renal
[51] = tested on: U251 glioblastoma
[52] = tested on: UACC-257 melanoma
[53] = tested on: UACC-62 melanoma
[54] = tested on: UO-31 renal

Question: Which GI50 [1] does the source give for `CCCCCCCCCCCCCCCC(=O)Nc1ccn([C@@H]2O[C@H](CO)[C@@H](O)[C@@H]2C#N)c(=O)n1` here?
Answer: 0.0598 µM

Question: And the TGI [1]?
Answer: 29.8 µM

Question: And the GI50 [2]?
Answer: 0.74 µM

Question: And the TGI [2]?
Answer: 15.8 µM

Question: And the GI50 [3]?
Answer: 1.32 µM

Question: What about the TGI [3] of the same compound?
Answer: 20 µM

Question: And the GI50 [4]?
Answer: 0.988 µM

Question: And the TGI [4]?
Answer: 39.1 µM

Question: And the GI50 [5]?
Answer: 5.56 µM

Question: And the TGI [5]?
Answer: 24.2 µM

Question: What about the GI50 [6] of the same compound?
Answer: 2.44 µM

Question: What about the TGI [6] of the same compound?
Answer: 43.6 µM

Question: And the TGI [7]?
Answer: 0.12 µM

Question: And the GI50 [8]?
Answer: 0.325 µM

Question: What about the TGI [8] of the same compound?
Answer: > 100 µM

Question: What about the GI50 [9] of the same compound?
Answer: 0.751 µM

Question: What about the TGI [9] of the same compound?
Answer: 21.7 µM

Question: And the GI50 [10]?
Answer: 28.4 µM

Question: What about the TGI [10] of the same compound?
Answer: > 100 µM

Question: And the GI50 [11]?
Answer: 0.464 µM

Question: And the TGI [11]?
Answer: 10.6 µM

Question: And the GI50 [12]?
Answer: 0.454 µM

Question: And the TGI [12]?
Answer: 18.8 µM

Question: What about the GI50 [13] of the same compound?
Answer: 0.946 µM

Question: What about the TGI [13] of the same compound?
Answer: 66.9 µM

Question: And the GI50 [14]?
Answer: 0.368 µM

Question: What about the TGI [14] of the same compound?
Answer: 1.4 µM

Question: And the GI50 [15]?
Answer: 0.0542 µM

Question: What about the TGI [15] of the same compound?
Answer: 18.5 µM

Question: And the GI50 [16]?
Answer: 4.71 µM

Question: What about the TGI [16] of the same compound?
Answer: 35.3 µM

Question: What about the GI50 [17] of the same compound?
Answer: 1.58 µM

Question: What about the TGI [17] of the same compound?
Answer: 20.4 µM

Question: What about the GI50 [18] of the same compound?
Answer: 12.5 µM

Question: And the TGI [18]?
Answer: > 100 µM

Question: And the GI50 [19]?
Answer: 12.7 µM

Question: And the TGI [19]?
Answer: 86 µM

Question: What about the GI50 [20] of the same compound?
Answer: 2.52 µM

Question: And the TGI [20]?
Answer: 17.7 µM

Question: What about the GI50 [21] of the same compound?
Answer: 6.5 µM

Question: What about the TGI [21] of the same compound?
Answer: 35.2 µM

Question: What about the GI50 [22] of the same compound?
Answer: 3.42 µM

Question: What about the TGI [22] of the same compound?
Answer: 17.7 µM

Question: And the GI50 [23]?
Answer: 3 µM

Question: And the TGI [23]?
Answer: 22.4 µM

Question: And the GI50 [24]?
Answer: 10.5 µM

Question: And the TGI [24]?
Answer: 28 µM

Question: What about the GI50 [25] of the same compound?
Answer: 1.33 µM

Question: What about the TGI [25] of the same compound?
Answer: 24.3 µM

Question: What about the GI50 [26] of the same compound?
Answer: 11.1 µM

Question: And the TGI [26]?
Answer: > 100 µM

Question: What about the GI50 [27] of the same compound?
Answer: 28.1 µM

Question: And the TGI [27]?
Answer: > 100 µM

Question: What about the GI50 [28] of the same compound?
Answer: 13.3 µM

Question: What about the TGI [28] of the same compound?
Answer: 54.9 µM

Question: And the GI50 [29]?
Answer: 0.244 µM

Question: What about the TGI [29] of the same compound?
Answer: 15.5 µM

Question: And the GI50 [30]?
Answer: 14.6 µM

Question: What about the TGI [30] of the same compound?
Answer: 31 µM

Question: And the GI50 [31]?
Answer: 0.143 µM

Question: And the TGI [31]?
Answer: 10.1 µM

Question: What about the GI50 [32] of the same compound?
Answer: 6.11 µM

Question: What about the TGI [32] of the same compound?
Answer: 23.4 µM

Question: And the GI50 [33]?
Answer: 11.1 µM

Question: What about the TGI [33] of the same compound?
Answer: > 100 µM

Question: And the GI50 [34]?
Answer: 10.3 µM

Question: And the TGI [34]?
Answer: 37.9 µM

Question: And the GI50 [35]?
Answer: 28.1 µM

Question: What about the TGI [35] of the same compound?
Answer: > 100 µM

Question: And the GI50 [36]?
Answer: 0.292 µM

Question: And the TGI [36]?
Answer: 18.4 µM

Question: And the GI50 [37]?
Answer: 13.3 µM

Question: What about the TGI [37] of the same compound?
Answer: 92.5 µM

Question: And the GI50 [38]?
Answer: 4.4 µM

Question: And the TGI [38]?
Answer: 20.6 µM

Question: What about the GI50 [39] of the same compound?
Answer: 16.6 µM

Question: And the TGI [39]?
Answer: > 100 µM

Question: What about the GI50 [40] of the same compound?
Answer: 0.43 µM

Question: And the TGI [40]?
Answer: 19.9 µM

Question: What about the GI50 [41] of the same compound?
Answer: 0.716 µM

Question: And the TGI [41]?
Answer: > 100 µM

Question: And the GI50 [42]?
Answer: 4.82 µM

Question: And the TGI [42]?
Answer: 38.3 µM

Question: What about the GI50 [43] of the same compound?
Answer: 6.96 µM

Question: What about the TGI [43] of the same compound?
Answer: 30.1 µM

Question: What about the GI50 [44] of the same compound?
Answer: 7.71 µM

Question: What about the TGI [44] of the same compound?
Answer: 21 µM

Question: What about the GI50 [45] of the same compound?
Answer: 1.15 µM

Question: And the TGI [45]?
Answer: 39.1 µM

Question: And the GI50 [46]?
Answer: 4.66 µM

Question: And the TGI [46]?
Answer: 52.5 µM

Question: And the GI50 [47]?
Answer: 0.139 µM

Question: What about the TGI [47] of the same compound?
Answer: 0.339 µM

Question: What about the GI50 [48] of the same compound?
Answer: 4.81 µM

Question: And the TGI [48]?
Answer: > 100 µM

Question: And the GI50 [49]?
Answer: 35.1 µM

Question: And the TGI [49]?
Answer: > 100 µM

Question: What about the GI50 [50] of the same compound?
Answer: 34.8 µM

Question: And the TGI [50]?
Answer: > 100 µM

Question: What about the GI50 [51] of the same compound?
Answer: 0.314 µM

Question: And the TGI [51]?
Answer: 23.5 µM

Question: And the GI50 [52]?
Answer: 20.1 µM

Question: And the TGI [52]?
Answer: 74.6 µM

Question: What about the GI50 [53] of the same compound?
Answer: 0.655 µM

Question: And the TGI [53]?
Answer: 23.5 µM

Question: And the GI50 [54]?
Answer: 11.7 µM

Question: And the TGI [54]?
Answer: 45.7 µM

From PubChem BioAssay (NCI)
